Experiments:
[1] = Adsorption of surfactant compositions to the air-water interface (surface pressure vs time, Wilhelmy method); format: physicochemical; conditions: Means ± SEM
Procedure: (§1) Surface activity of synthetic peptide/lipid surfactant compositions was assessed by either or both of the following methods: (1) measurement of the adsorption of surfactant compositions to the air-water interface as a function of time, and (2) measurement of overall dynamic surface activity on a pulsating bubble surfactometer (general methodological details of these two experimental techniques are described by Notter, Lung Surfactants: Basic Science and Clinical Applications, Marcel Dekker, Inc, New York (2000), which is hereby incorporated by reference in its entirety).
In adsorption studies, a given surfactant mixture was injected at time zero beneath the surface of a stirred surfactant-free subphase, and surface pressure (defined as surface tension lowering below that of the pure subphase) was measured as a function of time from the force on a hanging platinum slide (“Wilhelmy” method). By definition, higher surface pressure corresponds to lower surface tension (Notter, Lung Surfactants: Basic Science and Clinical Applications, Marcel Dekker, Inc, New York (2000)).

[2] = Pulsating bubble surfactometer, minimum surface tension; format: physicochemical; conditions: Table 8, 37° C, 20 cycles/min, 50% area compression, 2.5 mg/ml phospholipid, Means ± SEM, N = 4
Procedure: as §1
In pulsating bubble studies, surface tension at minimum bubble radius (minimum surface tension) was determined as a function of time during pulsation on a bubble surfactometer (General Transco, Largo, Fla.) (37° C., 20 cycles/min, 50% area compression). A tiny air bubble was formed and pulsated between maximum and minimum radii of 0.55 and 0.4 mm, respectively, and the pressure drop across the air-water interface of the bubble was measured with a precision transducer. Minimum surface tension was calculated from the measured pressure drop at minimum radius (0.4 mm) from the Laplace equation (Enhorning, “Pulsating Bubble Technique for Evaluation of Pulmonary Surfactant,” J Appl Physiol 43:198-203 (1977); Hall et al., “Approximations in the Measurement of Surface Tension with the Oscillating Bubble Surfactometer,” J Appl Physiol 75:468-477 (1993), each of which is hereby incorporated by reference in its entirety). Measurements of overall surface activity on this instrument reflect the combined effects of adsorption and dynamic film compression at a cycling rate (20 cycles/min), temperature (37° C.), and area compression (50% compression from maximum to minimum area) relevant for the mammalian lungs in vivo (Notter, Lung Surfactants: Basic Science and Clinical Applications, Marcel Dekker, Inc, New York (2000); Enhorning, “Pulsating Bubble Technique for Evaluation of Pulmonary Surfactant,” J Appl Physiol 43:198-203 (1977); Notter et al., “Pulmonary Surfactant: Physical Chemistry, Physiology and Replacement,” Rev Chem Eng 13:1-118 (1997), each of which is hereby incorporated by reference in its entirety).

[3] = system: ventilated rabbits with ARDS induced by saline lavage; test: Saline-lavage ventilated rabbit model of ARDS: arterial oxygenation and dynamic compliance; format: in vivo, New Zealand white rabbits; conditions: intratracheal 100 mg/kg
Procedure: Saline lavage produces surfactant deficiency, alveolar collapse and lung edema in ventilated rats and rabbits, and is a useful experimental model for human ARDS. A saline-lavage rabbit model for lung injury was thus used to compare synthetic surfactants, with lipids only as negative control. Restoration of lung function was assessed by serial monitoring of gas exchange and lung mechanics. Physiological activity results for selected synthetic SP-B peptides are shown below, and physiological activity results for selected synthetic SP-C peptides are included in following Example 8.
Animal experiments were performed following established protocols approved by the Animal Care and Use Committee at the Los Angeles Biomedical Research Institute at Harbor-UCLA Medical Center. […] In brief, experimental animals were commercially available young adult male New Zealand white rabbits whose respiratory function was followed during mechanical ventilation by measurements of serial arterial blood gases and pulmonary compliance over the first 2 hours after a standardized saline lavage protocol. For this timeframe of study, the model reflected a relatively pure state of surfactant insufficiency in animals with mature lungs. Saline lavage administration was performed after induction of anesthesia, insertion of a venous line in a marginal ear vein, endotracheal intubation and initiation of mechanical ventilation, muscle paralysis, and insertion of a carotid arterial line. Heart rate, arterial blood pressure and rectal temperature were measured continuously. After stabilization on the ventilator, saline lavage was performed with repeated intratracheal instillation and removal of 30 mL of normal saline until the PaO2 dropped below 100 mm Hg (average 3 lavages). Maintenance fluid was provided by a continuous infusion of Lactated Ringer's solution at a rate of 10 ml/kg/h. Edema fluid appearing in the trachea was removed by suctioning. When the PaO2 was stable at less than 100 mm Hg in saline lavaged animals, an experimental or control surfactant mixture was instilled into the trachea at a dose of 100 mg/kg body weight and a concentration of 35 mg/mL. The rabbits were ventilated using a Harvard volume-controlled animal ventilator (tidal volume 7.5 ml/kg, a positive end-expiratory pressure [PEEP] of 3 cm H2O, an inspiratory/expiratory ratio of 1:2, 100% oxygen, and a respiratory rate to maintain a PaCO2 at ˜40 mm Hg). Airway flow and pressures and tidal volume were monitored continuously with a pneumotachograph connected to the endotracheal tube and a pneumotach system. Arterial pH and blood gases were done every 15 minutes. Dynamic lung compliance was calculated by dividing tidal volume/kg body weight by changes in airway pressure (peak inspiratory pressure minus positive end-expiratory pressure) (mL/kg/cmH2O). Animals were sacrificed 2 h after surfactant administration with an overdose of pentobarbital. End-points are pulmonary gas exchange (arterial pH, PaCO2 and PaO2) and pulmonary mechanics (dynamic compliance, postmortem pressure-volume curves). Each treatment group consisted of n=4-9 animals.
The in vivo pulmonary activity of reduced MB DATK and SMB DATK was investigated in comparison with oxidized SMB and MB (positive controls) and lipids alone (negative control) over 120 min, following intratracheal instillation of these surfactants into ventilated rabbits with ARDS induced by saline lavage. Oxidized SMB and MB were used as positive controls, because these SP-B mimics previously indicated high in vivo surfactant activities equal to those of native, full-length porcine SP-B in ventilated rats with ARDS (Walther et al., “Critical Structural and Functional Roles for the N-terminal Insertion Sequence in Surfactant Protein B Analogs,” PLoS One 5:e8672 (2010), which is hereby incorporated by reference in its entirety). […]

[4] = synthetic peptide; Walther et al. 2000; cited from earlier work
[5] = storage in organic solvent or in surfactant lipids for 4-6 weeks; Walther et al. 2007; cited from earlier work
[6] = Table 7, 0.0625 mg phospholipid/ml of subphase, normal saline pH 7.0, 37 ± 0.5° C, N = 4
[7] = Table 9, phospholipase-resistant lipids, 0.0625 mg phospholipid/ml, n = 4
[8] = Table 13, SP-B plus SP-C peptide (1.5%:1.5%) with resistant lipids or glycerophospholipids, 0.0625 mg phospholipid/ml, n = 4

Q: Which “Adsorption Surface Pressure at time 0 min” value [1, 6] does the source give for `CCCCCCCCCCCCCCCCOCC(COP(=O)(O)CCC[N+](C)(C)C)OCCCCCCCCCCCCCCCC` (racemic) [DEPN-8, [(±)-trimethyl(3-phosphonopropyl)ammonium, mono(2,3-bis(hexadecyloxy)propyl ester]] here?
A: 0 ± 0.0 mN/m

Q: What about the “Adsorption Surface Pressure at time 1 min” value [1, 6] of the same compound?
A: 12.9 ± 2.9 mN/m

Q: What about the “Adsorption Surface Pressure at time 2 min” value [1, 6] of the same compound?
A: 16.0 ± 1.6 mN/m

Q: And the “Adsorption Surface Pressure at time 5 min” value [1, 6]?
A: 17.8 ± 1.7 mN/m

Q: What about the “Adsorption Surface Pressure at time 10 min” value [1, 6] of the same compound?
A: 18.0 ± 1.7 mN/m

Q: And the “Adsorption Surface Pressure at time 15 min” value [1, 6]?
A: 18.2 ± 1.7 mN/m

Q: What about the “Adsorption Surface Pressure at time 0 min” value [1, 7] of the same compound?
A: 0.0 ± 0.0 mN/m

Q: What about the “Adsorption Surface Pressure at time 1 min” value [1, 7] of the same compound?
A: 12.9 ± 2.9 mN/m

Q: What about the “Adsorption Surface Pressure at time 2 min” value [1, 7] of the same compound?
A: 16.0 ± 1.6 mN/m

Q: And the “Adsorption Surface Pressure at time 5 min” value [1, 7]?
A: 17.8 ± 1.7 mN/m

Q: And the “Adsorption Surface Pressure at time 10 min” value [1, 7]?
A: 18.0 ± 1.7 mN/m

Q: And the “Adsorption Surface Pressure at time 15 min” value [1, 7]?
A: 18.2 ± 1.7 mN/m

Q: And the “Adsorption Surface Pressure at time 0 min” value [1, 8]?
A: 0.0 ± 0.0 mN/m

Q: What about the “Adsorption Surface Pressure at time 1 min” value [1, 8] of the same compound?
A: 12.9 ± 2.9 mN/m

Q: What about the “Adsorption Surface Pressure at time 2 min” value [1, 8] of the same compound?
A: 16.0 ± 1.6 mN/m

Q: And the “Adsorption Surface Pressure at time 5 min” value [1, 8]?
A: 17.8 ± 1.7 mN/m

Q: What about the “Adsorption Surface Pressure at time 10 min” value [1, 8] of the same compound?
A: 18.0 ± 1.7 mN/m

Q: What about the “Adsorption Surface Pressure at time 15 min” value [1, 8] of the same compound?
A: 18.2 ± 1.7 mN/m

Q: What about the “Minimum Surface Tension at 0.25 min of bubble pulsation” value ([2]; 0.25 min) of the same compound?
A: 31.2 ± 2.0 mN/m

Q: What about the “Minimum Surface Tension at 0.5 min of bubble pulsation” value ([2]; 0.5 min) of the same compound?
A: 27.1 ± 1.8 mN/m

Q: What about the “Minimum Surface Tension at 1 min of bubble pulsation” value ([2]; 1 min) of the same compound?
A: 21.2 ± 1.5 mN/m

Q: What about the “Minimum Surface Tension at 2 min of bubble pulsation” value ([2]; 2 min) of the same compound?
A: 14.6 ± 1.2 mN/m

Q: What about the “Minimum Surface Tension at 5 min of bubble pulsation” value ([2]; 5 min) of the same compound?
A: 7.8 ± 1.7 mN/m

Q: What about the “Minimum Surface Tension at 10 min of bubble pulsation” value ([2]; 10 min) of the same compound?
A: 1.5 ± 1.0 mN/m

Q: What about the “Minimum Surface Tension at 15 min of bubble pulsation” value ([2]; 15 min) of the same compound?
A: <1 mN/m

Q: With “GIPFFPVHLKRLLIVVVVVVLIVVVIVGALLMGL [SP-Cff]” as the compound, how does the “Oxygenation and lung compliance after instillation (FIG. 2)” value ([3]; SP-C mimics 3.0% by weight in 5:3:2 (weight ratio) DPPC:POPC:POPG, PBS pH 7.4, 35 mg/mL) read?
A: much less so

Q: What about the “relative order of pulmonary activity in terms of oxygenation and lung compliance” value ([3]; SP-C mimics 3.0% by weight in 5:3:2 DPPC:POPC:POPG) of the same compound?
A: SP-C33˜SP-Css ion-lock>SP-Cff>Lipids alone

Q: And the solubility in chloroform-methanol [4]?
A: low solubility

Q: And the “conformational stability upon storage (FTIR)” value [5]?
A: self-associates to form β-sheet aggregates

Source: patent US20150125515A1, “NOVEL SP-B & SP-C PEPTIDES, SYNTHETIC LUNG SURFACTANTS, AND USE THEREOF” (UNIVERSITY OF ROCHESTER, priority 2012, published 2015)
